Legend:
Type in all cases: in vivo
Plasmopara viticola = assay: Test B: grape downy mildew, spray 24 h after inoculation (disease rating, 100 = 100% disease control); conditions: spray 24 h after inoculation, compounds without asterisk (not 40 or 10 ppm)
How it was run: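 This is a curative spray test, applied 24 h after inoculation. Compounds in 50/50 acetone–water with 250 ppm Trem 014 surfactant were sprayed to run-off on P. viticola-infected seedlings, with 200 ppm equating to 500 g/ha. Plants were kept 5 days in a 20 °C growth chamber, then 24 h humid, and scored 0–100 for disease control relative to controls.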

Phytophthora infestans [1] = assay: whole plant or invertebrate; conditions: tomato late blight; spray the day before inoculation; compounds without asterisk (not 40 or 10 ppm)
Phytophthora infestans [2] = assay: whole plant or invertebrate; conditions: tomato late blight; spray 17 h after inoculation; compounds without asterisk (not 40 or 10 ppm)
[3] = system: Erysiphe graminis f. sp. tritici; assay: Test E: wheat powdery mildew, spray the day before inoculation (disease rating, 100 = 100% disease control); conditions: spray the day before inoculation, compounds without asterisk (not 40 or 10 ppm)
How it was run: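 Protective test: spores of E. graminis f. sp. tritici dusted on wheat seedlings one day after run-off spraying of test suspension (acetone/water with 250 ppm surfactant; 200 ppm = 500 g/ha). Ratings after 7 days in growth chamber at 20° C, 100 = full control, 0 = none, relative to controls.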

[4] = system: Pseudoperonospora cubensis; assay: Test F: cucumber downy mildew, DMSO/acetone/water test suspension, spray the day before inoculation (disease rating, 100 = 100% disease control); conditions: DMSO/acetone/water suspension, spray the day before inoculation, compounds without asterisk
From the text: The test compounds were first dissolved in dimethyl sulfoxide (DMSO) in an amount equal to 4% of the final volume and then suspended at the desired concentration (in ppm) in acetone and purified water (30/70 mix by volume). The resulting test suspensions were then used in test F. Spraying a 250 ppm test suspension on the test plants was the equivalent of a rate of 250 g/ha.
The test suspension was sprayed on cucumber seedlings. The following day the seedlings were inoculated with a spore suspension of Pseudoperonospora cubensis (the causal agent of cucumber downy mildew) and incubated in a saturated atmosphere at 20° C. for 24 h, and then moved to a growth chamber at 20° C. for 6 days, after which disease ratings were made.
Results for Tests A-F are given in Table A. In the table, a rating of 100 indicates 100% disease control and a rating of 0 indicates no disease control (relative to the controls). A dash (-) indicates no test results.

Structure (SMILES)	Test B disease rating (100 = 100% disease control, 0 = no disease control) (Plasmopara viticola)	Test C disease rating (100 = 100% disease control, 0 = no disease control) (Phytophthora infestans [1])	Test D disease rating (100 = 100% disease control, 0 = no disease control) (Phytophthora infestans [2])	Test E disease rating (100 = 100% disease control, 0 = no disease control) [3]	Test F disease rating (100 = 100% disease control, 0 = no disease control) [4]
COc1ccc(Br)cc1CC(=O)N1CCC(c2nc(C(=O)N(C)[C@H](C)c3ccccc3)cs2)CC1 [compound 81]	100%	100%	100%	0%	50%
CCCC(c1ccccc1)N(C)C(=O)c1csc(C2CCN(C(=O)Cc3cc(C)ccc3C)CC2)n1 (centres unmarked) [compound 82]	100%	97%	53%	55%	93%
C[C@H](c1ccccc1)N(C)C(=O)c1csc(C2CCN(C(=O)Cc3cc(Cl)ccc3Br)CC2)n1 [compound 86]	99%	99%	100%	0%	86%
C[C@H](c1ccccc1)N(C)C(=O)c1csc(C2CCN(C(=O)Cc3cc(C(F)(F)F)ccc3C(F)(F)F)CC2)n1 [compound 87]	79%	88%	8%	0%	100%
Cc1ccc(C)c(CC(=O)N2CCC(c3nc(C(=O)N(C)C(C)c4cccs4)cs3)CC2)c1 (centres unmarked) [compound 89]	100%	99%	99%	43%	93%
Cc1nc(CC(=O)N2CCC(c3nc(C(=O)N(C)[C@H](C)c4ccccc4)cs3)CC2)c(C)s1 [compound 92]	83%	100%	100%	0%	100%
Cc1ccc(C)c(CC(=O)N2CCC(c3nc(C(=O)N(C)C(C)c4ccccn4)cs3)CC2)c1 (centres unmarked) [compound 94]	0%	100%	100%	0%	93%
Cc1ccc(C)c(CC(=O)N2CCC(c3nc(C(=O)N(C)C(C)c4cccnc4)cs3)CC2)c1 (centres unmarked) [compound 95]	0%	100%	83%	0%	97%
CCc1cccc(CC(=O)N2CCC(c3nc(C(=O)N(C)[C@H](C)c4ccccc4)cs3)CC2)c1 [compound 119]	95%	99%	33%	89%	100%
Cc1ccc(C(F)(F)F)cc1CC(=O)N1CCC(c2nc(C(=O)N(C)[C@H](C)c3ccccc3)cs2)CC1 [compound 124]	100%	100%	0%	71%	90%
COc1ccc(C)cc1CC(=O)N1CCC(c2nc(C(=O)N(C)[C@H](C)c3ccccc3)cs2)CC1 [compound 125]	100%	100%	99%	94%	100%
Cc1cc(C(F)(F)F)nn1CC(=O)N1CCC(c2nc(C(=O)N(C)[C@H](C)c3ncc(Cl)cc3Cl)cs2)CC1 [compound 143]	69%	100%	99%	0%	50%
C[C@H](c1ccccc1)N(C)C(=O)c1coc(C2CCN(C(=O)Nc3cccc(C(F)(F)F)c3)CC2)n1 [compound 158]	9%	95%	0%	0%	90%
COc1ccc(C)cc1NC(=S)N1CCC(c2nc(C(=O)N(C)[C@H](C)c3ccccc3)cs2)CC1 [compound 159]	95%	99%	91%	73%	93%
C[C@H](c1ccccc1)N(C)C(=O)c1csc(C2CCN(C(=S)Nc3cccc(C(F)(F)F)c3)CC2)n1 [compound 160]	47%	40%	0%	0%	50%
Cc1ccc(C)c(CC(=O)N2CCC(c3nc(C(=O)N(C)Cc4ccccc4)cs3)CC2)c1 [compound 167]	27%	97%	0%	0%	99%
Cc1ccc(C)c(CC(=O)N2CCC(c3nc(C(=O)N(C)C4CSCc5ccccc54)cs3)CC2)c1 (centres unmarked) [compound 172]	43%	100%	100%	0%	99%
Cc1ccc(C)c(CC(=O)N2CCC(c3nc(C(=O)N(C)C4CCCc5c4ccc4ccccc54)cs3)CC2)c1 (centres unmarked) [compound 173]	0%	0%	0%	0%	95%
Cc1ccc(C)c(CC(=O)N2CCC(c3nc(C(=O)N(C)C4CCCCC4)cs3)CC2)c1 [compound 174]	68%	100%	63%	0%	90%
Cc1ccc(C)c(CC(=O)N2CCC(c3nc(C(=O)N(C)C(C)(C)Cc4ccc(F)cc4)cs3)CC2)c1 [compound 175]	93%	95%	0%	0%	43%
Cc1ccc(C)c(CC(=O)N2CCC(c3nc(C(=O)N(C)C4CCCC(C)C4)cs3)CC2)c1 (centres unmarked) [compound 176]	15%	95%	24%	0%	49%
Cc1ccc(C)c(CC(=O)N2CCC(c3nc(C(=O)N(C)C4CCCC(C)C4C)cs3)CC2)c1 (centres unmarked) [compound 177]	86%	100%	79%	0%	43%
